According to US12201690B2, “Formulations/compositions comprising ibrutinib” (Janssen Pharmaceutica NV, priority 2018, dated 2025):

Legend:
[1] = 1M ASAP (Accelerated Stability Assessment Program) stability study; format: physicochemical; details: samples stored for 1 month at 60° C.
Method: The new 25 concepts were screened in a 1M ASAP (Accelerated Stability Assessment Program) stability study (5, 40 and 60° C. storage conditions), in a 6M lab stability study and in PET tests.
The Results of the 6-Month (6M) Lab Stability

[2] = Microscope search for new needle-shaped (co-)crystals in stored/stressed suspensions; format: physicochemical; details: benzyl alcohol as preservative
Description: As consequence of the increased paraben concentration, a crystallization issue has been observed with the suspension Composition 2 after a few months in stability at different storage conditions. […] By IR, Raman and MS analysis, the new needle crystals are characterized as potentially being co-crystals of the API and Parabens.
Between the acceptable concepts 13 to 20, after 6M storage in cyclic conditions, only in the concept containing benzoic acid as an incipient was new crystallization observed. The other samples were stable. • All concepts were physically stressed by rolling.
All suspension concepts were rolled into a glass vial, closed with a child resistant stopper, at room temperature, horizontally, at a speed of 25 rpm, for 1M. […] Between these concepts, only concepts 18, 19 and 20 were stable.
Some concepts were spiked to try to induce a rapid co-crystallization. Concepts containing Methyl and Ethyl paraben, were spiked with few granules of powder of co-crystals of API/Methyl Paraben and API/Et Paraben.

Compound | reduction in preservative assay [1] | (co-)crystallization [2]
C/C=C/C=C/C(=O)O [Sorbic acid] | about 15% | –
O=C(O)c1ccccc1 [benzoic acid] | about 5% | –
OCc1ccccc1 [benzyl alcohol] | 1% | not observed
